Data published in patent US20260378560A1, “APPROACHES TO DESIGNING AND PERFORMING COMPRESSED BIOLOGICAL EXPERIMENTS AND SYSTEMS FOR IMPLEMENTING THE SAME” (EXVIVO LABS INC., priority 2023, published 2026).

How the values were obtained:
MOLT-4 = test: ATP-based luminescence cell viability (CellTiter Glo), drug response score, MOLT-4
REH = test: ATP-based luminescence cell viability (CellTiter Glo), drug response score, REH; set-up: scale not given here; settings: for DRS from deconvolution: Sample compression, 5 Pick 3 pools; for drug response score (DRS): screened individually (Compress: None)
SUP-B15 = test: ATP-based luminescence cell viability (CellTiter Glo), drug response score, SUP-B15; set-up: scale not given here
Text: (§1) As part of a screen, a drug could be screened at different concentrations ranging from a lowest concentration to a highest concentration. In such a scenario, multiple data structures may be obtained by the screening platform 210. […] With these multiple data structures, the analysis module 218 can generate a dose-response curve that describes the magnitude of the response of the biological target, as a function of exposure to different concentrations of the drug. Further, the analysis module 218 can calculate a metric that is indicative of the response of the biological target. In the event that the biological target is one of multiple biological targets that are introduced to the pools of drugs, the metric can be used by the screening platform 210 to better understand the relative magnitude of responses. One example of a metric is drug-response score (“DRS”). DRS can be calculated as a continuous function of multiple parameters of the non-linear dose-response curve, including the slope at the half-maximal effective concentration (also called “EC50”) and the top and bottom asymptotes of the dose-response curve. DRS can be calculated as follows: […]
(§2) where y is a continuous function of the variable dose x, a is the maximal response (i.e., the top asymptote of the curve), b is the slope of the curve, c is the IC50 (i.e., half-maximal inhibitory concentration), and d is the minimal response (i.e., the bottom asymptote of the curve). Other examples of metrics include those output by sigmoidal and Hill slide functions that, like DRS, incorporate multiple aspects of the dose-response curve into a continuous function.
(§3) Total cell viability was measured for each cancer cell line using an Adenosine TriPhosphate (“ATP”) assay, and more specifically an ATP-based luminescence assay (i.e., CellTiter Glo). Each cancer drug was screened at multiple concentrations ranging from one nanomolar (nM) to ten micromolar (UM) in order to generate a dose-response curve and calculate a drug response score (“DRS”) for each cancer cell line. The DRS was calculated as a continuous function of multiple parameters of the non-linear dose-response curve, including the slope at the half-maximal effective concentration (also called “EC50”) and the top and bottom asymptotes of the dose-response curve. […] After total cell viability was measured and DRS was calculated, the DRS of each cancer cell line in the pool was deconvolved for each cancer drug.
(§4) DRS for these anchor cell lines are bolded and italicized. Anchors can be identified based on frequency of the cell lines in pools with high DRS versus low DRS. At a high level, an anchor is predicted to be the cell line with the lowest individual DRS. In order to deconvolute individual cell line DRS values from pool DRS values, the anchor can start with an assumed DRS value of zero. Each pool can then be expressed as a polynomial of variables (cell lines in the pool) and constants (DRS value of the pool). The DRS value of each cell line can then be solved for using the anchor value and overlapping polynomial expressions. When multiple values are calculated for the final target solved from the polynomials, then the anchor has a non-zero value that can be determined based on the difference in the calculated value of the final target.
(§5) Each pool represented a co-culture of three cell lines (“Target Compression”).

NALM-6 = test: ATP-based luminescence cell viability (CellTiter Glo), drug response score, NALM-6; settings: for DRS from deconvolution: NALM-6, Target compression, 7 Pick 3 pools; for drug response score (DRS): NALM-6, screened individually (Compress: None)
Text: as §1, §2, §3, §4, §5

CCRF-CFM [1] = test: ATP-based luminescence cell viability (CellTiter Glo), drug response score, CCRF-CFM; set-up: scale not given here; settings: for DRS from deconvolution: Sample compression, 5 Pick 3 pools; for drug response score (DRS): screened individually (Compress: None)
[2] = test system: co-culture of three cancer cell lines; test: Cell viability (CellTiter Glo) of compressed target pools, co-cultures of three cell lines (Target Compression); assay type: cell-based
Description: as §3, §5

CCRF-CFM [3] = test: ATP-based luminescence cell viability (CellTiter Glo), drug response score, CCRF-CFM; set-up: scale not given here; settings: Target compression
Text: as §1, §2, §3, §4, §5

[4] = test system: library of cancer cell lines; test: Hit profile of cancer drugs across library of cancer cell lines (cell viability); assay type: cell-based; settings: across cancer cell lines screened individually
Description: Total cell viability was measured for each cancer cell line using an Adenosine TriPhosphate (“ATP”) assay, and more specifically an ATP-based luminescence assay (i.e., CellTiter Glo). Each cancer drug was screened at multiple concentrations ranging from one nanomolar (nM) to ten micromolar (UM) in order to generate a dose-response curve and calculate a drug response score (“DRS”) for each cancer cell line. The DRS was calculated as a continuous function of multiple parameters of the non-linear dose-response curve, including the slope at the half-maximal effective concentration (also called “EC50”) and the top and bottom asymptotes of the dose-response curve. […]
Table I includes several examples of cancer drugs and their DRSs across each cancer cell line in the aforementioned experiment.

[5] = MOLT-4, Sample compression, 5 Pick 3 pools
[6] = MOLT-4, Target compression, 5 Pick 3 pools
[7] = MOLT-4, Target compression, 6 Pick 3 pools
[8] = MOLT-4, Target compression, 7 Pick 3 pools
[9] = SUP-B15, Sample compression, 5 Pick 3 pools
[10] = SUP-B15, Target compression, 5 Pick 3 pools
[11] = SUP-B15, Target compression, 6 Pick 3 pools
[12] = SUP-B15, Target compression, 7 Pick 3 pools
[13] = 5 Pick 3, Pool 1 (REH, SUP-B15, CCRF-CFM)
[14] = 5 Pick 3, Pool 2 (SUP-B15, CCRF-HSB2, MOLT-4)
[15] = 5 Pick 3, Pool 3 (SUP-B15, CCRF-CFM, CCRF-HSB2)
[16] = 5 Pick 3, Pool 4 (REH, CCRF-CFM, MOLT-4)
[17] = 5 Pick 3, Pool 5 (REH, CCRF-HSB2, MOLT-4)
[18] = 6 Pick 3, Pool 1 (REH, CCRF-CFM, MOLT-4)
[19] = 6 Pick 3, Pool 2 (REH, CCRF-HSB2, MOLT-4)
[20] = 6 Pick 3, Pool 3 (REH, CCRF-CFM, JURKAT)
[21] = 6 Pick 3, Pool 4 (SUP-B15, CCRF-HSB2, JURKAT)
[22] = 6 Pick 3, Pool 5 (SUP-B15, CCRF-CFM, JURKAT)
[23] = 6 Pick 3, Pool 6 (SUP-B15, CCRF-HSB2, MOLT-4)
[24] = 7 Pick 3, Pool 1 (SUP-B15, CCRF-CFM, JURKAT)
[25] = 7 Pick 3, Pool 2 (SUP-B15, CCRF-HSB2, NALM-6)
[26] = 7 Pick 3, Pool 3 (SUP-B15, CCRF-CFM, NALM-6)
[27] = 7 Pick 3, Pool 4 (REH, CCRF-HSB2, JURKAT)
[28] = 7 Pick 3, Pool 5 (REH, MOLT-4, NALM-6)
[29] = 7 Pick 3, Pool 6 (REH, MOLT-4, JURKAT)
[30] = 7 Pick 3, Pool 7 (CCRF-CFM, CCRF-HSB2, MOLT-4)

Row | SMILES | DRS from deconvolution (MOLT-4; [5]) | DRS from deconvolution (MOLT-4; [6]) | DRS from deconvolution (MOLT-4; [7]) | DRS from deconvolution (MOLT-4; [8]) | DRS from deconvolution (REH) | drug response score (DRS) (REH) | DRS from deconvolution (SUP-B15; [9]) | DRS from deconvolution (SUP-B15; [10]) | DRS from deconvolution (SUP-B15; [11]) | DRS from deconvolution (SUP-B15; [12]) | DRS from deconvolution (NALM-6) | drug response score (DRS) (NALM-6) | DRS from deconvolution (CCRF-CFM [1]) | drug response score (DRS) (CCRF-CFM [1]) | DRS of pool [2, 13] | DRS of pool [2, 14] | DRS of pool [2, 15] | DRS of pool [2, 16] | DRS of pool [2, 17] | DRS of pool [2, 18] | other results
1 | CC1(C)CCC(CN2CCN(c3ccc(C(=O)NS(=O)(=O)c4ccc(NCC5CCOCC5)c([N+](=O)[O-])c4)c(Oc4cnc5[nH]ccc5c4)c3)CC2)=C(c2ccc(Cl)cc2)C1 [Venetoclax] | 1.26 | 0.87 | 2.79 | 2.98 | 1.15 | 3.80 | 37.02 | 37.99 | 37.35 | 35.04 | 9.54 | 7.30 | 0.50 | 1.10 | 14.50 | 13.53 | 13.46 | 2.70 | 2.43 | 2.60 | DRS of pool [2, 19]: 2.26; DRS of pool [2, 20]: 1.57; DRS of pool [2, 21]: 13.22; DRS of pool [2, 22]: 12.95; DRS of pool [2, 23]: 13.01; DRS of pool [2, 24]: 12.97; DRS of pool [2, 25]: 14.37; DRS of pool [2, 26]: 15.70; DRS of pool [2, 27]: 1.25; DRS of pool [2, 28]: 4.62; DRS of pool [2, 29]: 2.25; DRS of pool [2, 30]: 1.35; DRS from deconvolution (CCRF-CFM [3]; 5 Pick 3 pools): 0.28; DRS from deconvolution (CCRF-CFM [3]; 6 Pick 3 pools): 1.51; DRS from deconvolution (CCRF-CFM [3]; 7 Pick 3 pools): 1.07; Hits (hit profile) [4]: One
2 | N#Cc1ccnc(N2C(=O)CC[C@H]2C(=O)N(c2cncc(F)c2)[C@H](C(=O)NC2CC(F)(F)C2)c2ccccc2Cl)c1 [Ivosidenib] | 0.06 | 0.21 | 0.30 | 0.22 | 0.48 | 0.60 | 0.09 | 0.00 | 0.00 | 0.00 | 0.00 | 0.00 | 0.99 | 1.00 | 0.54 | 0.60 | 0.91 | 0.63 | 0.88 | 0.60 | DRS of pool [2, 19]: 0.81; DRS of pool [2, 20]: 0.77; DRS of pool [2, 21]: 0.61; DRS of pool [2, 22]: 0.57; DRS of pool [2, 23]: 0.61; DRS of pool [2, 24]: 0.57; DRS of pool [2, 25]: 0.54; DRS of pool [2, 26]: 0.34; DRS of pool [2, 27]: 0.98; DRS of pool [2, 28]: 0.27; DRS of pool [2, 29]: 0.51; DRS of pool [2, 30]: 0.95; DRS from deconvolution (CCRF-CFM [3]; 5 Pick 3 pools): 1.15; DRS from deconvolution (CCRF-CFM [3]; 6 Pick 3 pools): 0.89; DRS from deconvolution (CCRF-CFM [3]; 7 Pick 3 pools): 1.01; Hits (hit profile) [4]: None
3 | Cc1[nH]c2ccccc2c1CCNCc1ccc(/C=C/C(=O)NO)cc1 [Panobinostat] | 14.56 | 15.32 | 15.84 | 14.94 | 12.17 | 12.60 | 25.45 | 21.44 | 22.36 | 21.78 | 15.85 | 16.30 | 18.07 | 17.50 | 17.85 | 18.46 | 20.02 | 15.81 | 16.48 | 15.05 | DRS of pool [2, 19]: 15.25; DRS of pool [2, 20]: 14.41; DRS of pool [2, 21]: 18.23; DRS of pool [2, 22]: 17.93; DRS of pool [2, 23]: 18.22; DRS of pool [2, 24]: 17.85; DRS of pool [2, 25]: 18.41; DRS of pool [2, 26]: 18.84; DRS of pool [2, 30]: 16.92; DRS from deconvolution (CCRF-CFM [3]; 5 Pick 3 pools): 19.98; DRS from deconvolution (CCRF-CFM [3]; 6 Pick 3 pools): 16.57; DRS from deconvolution (CCRF-CFM [3]; 7 Pick 3 pools): 18.55; Hits (hit profile) [4]: All
